# Experiments:
# [1] = tested on: FeCl3-induced inferior vena cava thrombosis; assay: FeCl3-induced inferior vena cava thrombosis in rats; type: in vivo, rat
# Procedure: (§1) 160 Rats were randomly divided into groups, 5 to 10 rats per group.
# (§2) According to the body weight in kilograms of the rats, the first dose of a drug was dissolved in 2 mL of physiological saline for single bolus injection. The maintaining dose of drug was dissolved in 9 ml of physiological saline, and placed in a double-channel micro-injection pump, which was dripped off within 90 minutes at a dripping speed of 0.1 ml/min. The sham operation group was administered with the same volume of physiological saline.
# (§3) The rats were fasted with free access to water overnight before the experiment.
# 15 minutes later, the filter paper was removed. And then, after observation for 45 minutes, the blood vessels and local tissues were rinsed with warm physiological saline, and the covered blood vessels were cut off. The thrombus which attached to the blood vessel walls was peeled off to be weighed on a tin foil for its wet weight, and then weighed overnight at room temperature for its dry weight. The administration was continued until the completion of the experiment.
# After the experiment was completed, the segment of the blood vessels in which there had been thrombus formation was cut off, weighed for the wet weight, and then weighed overnight at room temperature for the dry weight of the thrombus. Thrombosis inhibitory rate was calculated.
# [2] = tested on: blood coagulation function; assay: APTT in rabbits, single intravenous administration; type: in vivo, rabbit; conditions: single iv 200 (U/kg)
# Procedure: (§4) 1. Grouping and administration: 48 Rabbits were randomly divided into 6 groups, 8 rabbits per group. 1) Sham operation group (NS): Intravenous injection of the same volume of physiological saline; 2) positive control bivalirudin group (6 mg/kg); 3) positive control enoxaparin group (200 U/kg); 4) Low dose group of polypeptide 2 (3.0 mg/kg); 5) Medium dose group of polypeptide 2 (6.0 mg/kg); 6) High dose group of polypeptide 2 (12.0 mg/kg). Polypeptide 2 was administered by single intravenous administration. According to the body weight in kilograms of the rabbits, the sample was dissolved in 2 mL of physiological saline for single bolus injection. The sham operation group was administered with the same volume of physiological saline.
# (§5) 3.2 Determination of blood coagulation function: Blood samples were taken and the blood function (PT, TT, APTT) was determined at 0 min before administration, at points of 5 min and 15 min after administration, using a platelet-aggregation coagulation factor analyzer. Blood samples were centrifuged at 3510 rpm for 8 min to obtain platelet poor plasma (PPP). Reagent reconstruction and preservation were performed according to the operation requirements of the kit. Immediately after each blood sample was placed into a test cup and then added with PT. TT and APTT reagents, the test was started. After the test was completed, results were recorded.
# [3] = tested on: blood coagulation function; assay: PT in rabbits, single intravenous administration; type: in vivo, rabbit; conditions: single iv 200 (U/kg)
# Procedure: as §4, §5
# [4] = tested on: thrombin-induced pulmonary embolism; assay: Thrombin-induced pulmonary embolism in mice; type: in vivo, mouse; conditions: thrombin 1500 u/kg
# Procedure: Mice were randomly divided into 7 groups with 10 mice per group, in which group 1 was physiological saline group, group 2 was model control group, group 3 was positive control group of enoxaparin 0.5 mg/kg, group 4 was positive control group of bivalirudin 8 mg/kg, group 5 was low dose group of polypeptide 2 at 2.5 mg/kg, group 6 was medium dose group of polypeptide 2 at 5.0 mg/kg, and group 7 was high dose group of polypeptide 2 at 10.0 mg/kg. Except that physiological saline group and model control group were subjected to tail intravenous injection of 200 μl physiological saline, the other groups were given according to the doses, respectively. After 2 min, the mice in physiological saline group were administered with 100 μl physiological saline through tail intravenous injection and the other groups were each administered with 100 μl thrombin based on 1500 u/kg (80% to 90% of the lethal dose) through tail intravenous injection. The mice were observed after the administration for their death within 15 min.
# (1) Recording mortality rate: the death status of mice with acute pulmonary embolism mice within 15 min was recorded and the survival time was recorded, to calculate the mortality rate;
# (2) Determining lung coefficient: immediately after death, the bronchial and adipose tissues were dissected away from the lung tissue, and the lung tissue was washed with distilled water, and weighed for the lung weight after soaking up the water on the surface of the lung with a filter paper. The lung was taken out and weighed, to calculate the lung coefficient. Lung coefficient=Lung weight/Body weight×100%;
# The lung was immediately dissected and taken out and weighed to determine the lung coefficient.
# platelet aggregation = assay: Platelet aggregation in rabbits, single intravenous administration; type: in vivo, rabbit; conditions: single iv 200 (U/kg)
# Procedure: as §4
# 3.1 Platelet aggregation rate: 2.7 ml of blood was taken from the femoral vein, rapidly injected into a centrifuge tube containing 0.3 ml of 3.8% sodium citrate solution, and fully mixed well. The resulted blood samples were centrifuged at 810 rpm (100 g) for 8 min to obtain PRP, which was taken out and centrifuged at 3500 rpm (1863 g) for 8 min to obtain PPP, which was used to determine platelet aggregation.
# Blood samples were taken at a point before administration (0 min), and at points of administration for 5 min and 15 min, respectively, to determine the platelet aggregation rate, which was used to calculate the inhibitory rate of platelet aggregation with a calculation equation as follows: […]
# [5] = tested on: FeCl3-induced common carotid arterial thrombosis; assay: FeCl3-induced common carotid arterial thrombosis in rats; type: in vivo, rat
# Procedure: as §1, §2, §3
# After administration at a load dosage maintenance for 30 minutes, a filter paper with a 3 mm diameter and immersed with 35% FeCl3 solution was applied below the common carotid artery, below which a small piece of a plastic film (2.5 cm×2.0 cm) was placed to protect surrounding tissues. The body temperature was detected with a temperature probe in the distal end of the artery, and the time required from the beginning of stimulation to the point when the temperature decreased by 2.5 degrees was examined as the vascular occlusion time.
# The time from the point when FeCl3 was placed to the point when the temperature of the artery indicated a decrease of 2.5° C. was the vascular occlusion time, which reflected the state of thrombus formation.
substance,measurement,setting,value
Enoxaparin,Inferior vena cava thrombosis Inhibition percentage,[1]; iv 30 + 45 u (U/kg+U/kg/h),34.93%
same,Inferior vena cava thrombosis Thrombus weight,[1]; iv 30 + 45 u (U/kg+U/kg/h),14.67 ± 8.44 mg
same,Inferior vena cava thrombosis Inhibition percentage,[1]; iv 30 + 120 u (U/kg+U/kg/h),49.07%
same,Inferior vena cava thrombosis Thrombus weight,[1]; iv 30 + 120 u (U/kg+U/kg/h),11.48 ± 2.81 mg
same,Inferior vena cava thrombosis Inhibition percentage,[1]; iv 60 + 60 u (U/kg+U/kg/h),50.42%
same,Inferior vena cava thrombosis Thrombus weight,[1]; iv 60 + 60 u (U/kg+U/kg/h),11.18 ± 4.47 mg
same,Inferior vena cava thrombosis Inhibition percentage,[1]; iv 60 + 240 u (U/kg+U/kg/h),86.25%
same,Inferior vena cava thrombosis Thrombus weight,[1]; iv 60 + 240 u (U/kg+U/kg/h),6.59 ± 2.54 mg
same,Inferior vena cava thrombosis Inhibition percentage,[1]; iv 90 + 120 u (U/kg+U/kg/h),64.06%
same,Inferior vena cava thrombosis Thrombus weight,[1]; iv 90 + 120 u (U/kg+U/kg/h),8.10 ± 3.67 mg
same,APTT fold of prolongation,[2]; Administration 5 min,2.2 ± 0.5
same,APTT fold of prolongation,[2]; Administration 15 min,1.8 ± 0.3
same,APTT,[2]; Administration for 5 min,48.7 ± 3.9 s
same,APTT,[2]; Administration for 15 min,40.9 ± 2.9 s
same,APTT,[2]; Before administration,22.5 ± 1.1 s
same,PT fold of prolongation,[3]; Administration 5 min,1.2 ± 0.1
same,PT fold of prolongation,[3]; Administration 15 min,1.2 ± 0.1
same,PT,[3]; Administration for 5 min,6.7 ± 1.1 S
same,PT,[3]; Administration for 15 min,6.7 ± 0.8 S
same,PT,[3]; Before administration,5.8 ± 0.2 S
same,Mortality rate,"[4]; tail iv 0.5 mg/kg, within 15 min",10%
same,Lung coefficient,[4]; tail iv 250 IU/kg,1.02 ± 0.33 g/100 g
same,inhibitory rate of platelet aggregation,platelet aggregation; Administration for 5 min,9.5 ± 6.2%
same,inhibitory rate of platelet aggregation,platelet aggregation; Administration for 15 min,16.1 ± 6.5%
same,Common carotid arterial thrombosis Fold of prolongation,[5]; iv 30 + 45 u (U/kg+U/kg/h),1.93 ± 0.52
same,Common carotid arterial thrombosis OT,[5]; iv 30 + 45 u (U/kg+U/kg/h),48.17 ± 13.12 min
same,Common carotid arterial thrombosis Fold of prolongation,[5]; iv 30 + 120 u (U/kg+U/kg/h),1.66 ± 0.27
same,Common carotid arterial thrombosis OT,[5]; iv 30 + 120 u (U/kg+U/kg/h),41.4 ± 6.68 min
same,Common carotid arterial thrombosis Fold of prolongation,[5]; iv 60 + 60 u (U/kg+U/kg/h),2.23 ± 0.29
same,Common carotid arterial thrombosis OT,[5]; iv 60 + 60 u (U/kg+U/kg/h),55.75 ± 7.23 min
same,Common carotid arterial thrombosis Fold of prolongation,[5]; iv 60 + 240 u (U/kg+U/kg/h),1.99 ± 0.20
same,Common carotid arterial thrombosis OT,[5]; iv 60 + 240 u (U/kg+U/kg/h),49.75 ± 5.04 min
same,Common carotid arterial thrombosis Fold of prolongation,[5]; iv 90 + 120 u (U/kg+U/kg/h),1.95 ± 0.46
same,Common carotid arterial thrombosis OT,[5]; iv 90 + 120 u (U/kg+U/kg/h),48.83 ± 11.58 min

# From US11643439B2, “Multi-target compound with anticoagulation and antiplatelet activity, preparation method therefor, and use thereof” (SHAANXI MICOT TECHNOLOGY LIMITED COMPANY, priority 2015, dated 2023)
